# Measurements from patent US20230391768A2, “IMIDAZOPYRIDINE DERIVATIVES AND AZA-IMIDAZOPYRIDINE DERIVATIVES AS JANUS KINASE 2 INHIBITORS AND USES THEREOF” (Dana-Farber Cancer Institute, Inc., priority 2018, published 2023).
# How the values were obtained:
# Assay in all cases: KINOMEscan
# Type in all cases: binding
# Settings in all cases: read-out: percent of control
# AAKI = AAKI (Homo sapiens (Human), UniProt Q2M2I8)
# Protocol: (§1) In vitro profiling of Compound I-2 (1 μM) was performed using the DiscoveRx KINOMEscan® platform.
# [1] = biological target: ABL1(Q252H)-nonphosphorylated (Homo sapiens (Human), UniProt P00519, Q252H)
# Protocol: as §1
# AKT3 = AKT3 (Homo sapiens (Human), UniProt Q9Y243)
# Protocol: as §1
# AMPK-alpha2 = AMPK-alpha2 (Homo sapiens (Human), UniProt P54646)
# Protocol: as §1
# ARK5 = ARK5 (Homo sapiens (Human), UniProt O60285)
# Protocol: as §1
# ASK1 = ASK1 (Homo sapiens (Human), UniProt Q99683)
# Protocol: as §1
# BRSK1 = BRSK1 (Homo sapiens (Human), UniProt Q8TDC3)
# Protocol: as §1
# BRSK2 = BRSK2 (Homo sapiens (Human), UniProt Q8IWQ3)
# Protocol: as §1
# CDC2L2 = CDC2L2 (Homo sapiens (Human), UniProt Q9UQ88)
# Protocol: as §1
# DDR1 = DDR1 (Homo sapiens (Human), UniProt Q08345)
# Protocol: as §1
# DDR2 = DDR2 (Homo sapiens (Human), UniProt Q16832)
# Protocol: as §1
# DLK = DLK (Homo sapiens (Human), UniProt Q12852)
# Protocol: as §1
# DMPK = DMPK (Homo sapiens (Human), UniProt Q09013)
# Protocol: as §1
# EGFR(L858R, T790M) = EGFR(L858R, T790M) (Homo sapiens (Human), UniProt P00533, L858R/T790M)
# Protocol: as §1
# EPHA8 = EPHA8 (Homo sapiens (Human), UniProt P29322)
# Protocol: as §1
# FGFR1 = FGFR1 (Homo sapiens (Human), UniProt P11362)
# Protocol: as §1
# FGFR3 = FGFR3 (Homo sapiens (Human), UniProt P22607)
# Protocol: as §1
# FGFR4 = FGFR4 (Homo sapiens (Human), UniProt P22455)
# Protocol: as §1
# FYN = FYN (Homo sapiens (Human), UniProt P06241)
# Protocol: as §1
# GRK4 = GRK4 (Homo sapiens (Human), UniProt P32298)
# Protocol: as §1
# IKK-epsilon = IKK-epsilon (Homo sapiens (Human), UniProt Q14164)
# Protocol: as §1
# INSRR = INSRR (Homo sapiens (Human), UniProt P14616)
# Protocol: as §1
# [2] = biological target: JAK2(JH1domain-catalytic (Homo sapiens (Human), UniProt O60674))
# Protocol: as §1
# JNK2 = JNK2 (Homo sapiens (Human), UniProt P45984)
# Protocol: as §1
# LYN = LYN (Homo sapiens (Human), UniProt P07948)
# Protocol: as §1
# MST2 = MST2 (Homo sapiens (Human), UniProt Q13188)
# Protocol: as §1
# NEK11 = NEK11 (Homo sapiens (Human), UniProt Q8NG66)
# Protocol: as §1
# OSR1 = OSR1 (Homo sapiens (Human), UniProt O95747)
# Protocol: as §1
# PIK3CA = PIK3CA (Homo sapiens (Human), UniProt P42336)
# Protocol: as §1
# PIK3CA(H1047L) = PIK3CA(H1047L) (Homo sapiens (Human), UniProt P42336, H1047L)
# Protocol: as §1
# PIK3CG = PIK3CG (Homo sapiens (Human), UniProt P48736)
# Protocol: as §1
# PIP5K2B = PIP5K2B (Homo sapiens (Human), UniProt P78356)
# Protocol: as §1
# PRKCH = PRKCH (Homo sapiens (Human), UniProt P24723)
# Protocol: as §1
# [3] = biological target: RSK1 (Kin.Dom.2-C-terminal) (Homo sapiens (Human), UniProt Q15418)
# Protocol: as §1
# SIK2 = SIK2 (Homo sapiens (Human), UniProt Q9H0K1)
# Protocol: as §1
# SRPK3 = SRPK3 (Homo sapiens (Human), UniProt Q9UPE1)
# Protocol: as §1
# STK39 = STK39 (Homo sapiens (Human), UniProt Q9UEW8)
# Protocol: as §1
# TXK = TXK (Homo sapiens (Human), UniProt P42681)
# Protocol: as §1
# TYR = TYR (Homo sapiens (Human), UniProt Q06418)
# Protocol: as §1
# EGFR(L858R, T790M), sequence (P00533 25-1210 T790M/L858R): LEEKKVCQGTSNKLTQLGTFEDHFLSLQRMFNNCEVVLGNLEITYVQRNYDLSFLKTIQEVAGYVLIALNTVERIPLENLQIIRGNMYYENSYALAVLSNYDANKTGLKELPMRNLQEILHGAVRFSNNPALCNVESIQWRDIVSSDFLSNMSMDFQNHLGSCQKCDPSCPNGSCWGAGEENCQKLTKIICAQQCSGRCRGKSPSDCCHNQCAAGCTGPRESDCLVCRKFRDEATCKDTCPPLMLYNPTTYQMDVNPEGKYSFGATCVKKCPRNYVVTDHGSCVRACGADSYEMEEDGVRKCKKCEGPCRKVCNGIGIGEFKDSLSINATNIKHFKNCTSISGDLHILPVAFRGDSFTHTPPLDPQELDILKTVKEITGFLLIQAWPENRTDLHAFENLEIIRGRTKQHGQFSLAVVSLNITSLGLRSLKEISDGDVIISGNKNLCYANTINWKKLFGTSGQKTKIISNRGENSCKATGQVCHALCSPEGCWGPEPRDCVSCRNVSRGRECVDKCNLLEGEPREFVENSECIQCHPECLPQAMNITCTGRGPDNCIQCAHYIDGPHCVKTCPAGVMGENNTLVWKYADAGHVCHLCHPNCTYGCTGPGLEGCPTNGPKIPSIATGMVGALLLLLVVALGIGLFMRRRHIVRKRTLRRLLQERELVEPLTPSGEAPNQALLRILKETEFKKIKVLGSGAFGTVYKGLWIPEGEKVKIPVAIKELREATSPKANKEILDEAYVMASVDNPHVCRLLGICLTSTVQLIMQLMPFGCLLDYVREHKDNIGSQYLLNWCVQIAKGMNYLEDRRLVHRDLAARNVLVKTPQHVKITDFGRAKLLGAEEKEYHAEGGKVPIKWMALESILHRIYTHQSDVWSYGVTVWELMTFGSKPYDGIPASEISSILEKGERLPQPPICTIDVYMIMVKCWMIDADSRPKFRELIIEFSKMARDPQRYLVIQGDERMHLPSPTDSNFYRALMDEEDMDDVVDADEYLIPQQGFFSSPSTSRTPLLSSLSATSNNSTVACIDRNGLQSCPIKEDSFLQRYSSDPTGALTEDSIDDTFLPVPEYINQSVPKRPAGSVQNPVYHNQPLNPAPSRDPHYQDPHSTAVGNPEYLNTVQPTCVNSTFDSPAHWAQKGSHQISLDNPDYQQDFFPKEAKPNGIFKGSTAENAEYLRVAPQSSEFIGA
# MST2, sequence (Q13188 whole entry): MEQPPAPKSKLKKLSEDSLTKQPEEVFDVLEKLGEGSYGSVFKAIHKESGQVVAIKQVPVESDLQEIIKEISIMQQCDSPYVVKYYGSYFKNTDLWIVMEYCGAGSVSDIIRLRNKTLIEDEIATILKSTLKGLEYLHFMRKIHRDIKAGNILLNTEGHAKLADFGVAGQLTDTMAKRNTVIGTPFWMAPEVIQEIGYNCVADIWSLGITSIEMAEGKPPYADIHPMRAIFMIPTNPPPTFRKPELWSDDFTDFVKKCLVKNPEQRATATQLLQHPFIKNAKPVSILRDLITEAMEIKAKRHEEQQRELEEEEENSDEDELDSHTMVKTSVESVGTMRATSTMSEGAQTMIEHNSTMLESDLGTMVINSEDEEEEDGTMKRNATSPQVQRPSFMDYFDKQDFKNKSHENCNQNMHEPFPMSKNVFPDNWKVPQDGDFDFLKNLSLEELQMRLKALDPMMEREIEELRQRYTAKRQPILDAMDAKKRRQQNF
# CDC2L2, sequence (Q9UQ88 whole entry): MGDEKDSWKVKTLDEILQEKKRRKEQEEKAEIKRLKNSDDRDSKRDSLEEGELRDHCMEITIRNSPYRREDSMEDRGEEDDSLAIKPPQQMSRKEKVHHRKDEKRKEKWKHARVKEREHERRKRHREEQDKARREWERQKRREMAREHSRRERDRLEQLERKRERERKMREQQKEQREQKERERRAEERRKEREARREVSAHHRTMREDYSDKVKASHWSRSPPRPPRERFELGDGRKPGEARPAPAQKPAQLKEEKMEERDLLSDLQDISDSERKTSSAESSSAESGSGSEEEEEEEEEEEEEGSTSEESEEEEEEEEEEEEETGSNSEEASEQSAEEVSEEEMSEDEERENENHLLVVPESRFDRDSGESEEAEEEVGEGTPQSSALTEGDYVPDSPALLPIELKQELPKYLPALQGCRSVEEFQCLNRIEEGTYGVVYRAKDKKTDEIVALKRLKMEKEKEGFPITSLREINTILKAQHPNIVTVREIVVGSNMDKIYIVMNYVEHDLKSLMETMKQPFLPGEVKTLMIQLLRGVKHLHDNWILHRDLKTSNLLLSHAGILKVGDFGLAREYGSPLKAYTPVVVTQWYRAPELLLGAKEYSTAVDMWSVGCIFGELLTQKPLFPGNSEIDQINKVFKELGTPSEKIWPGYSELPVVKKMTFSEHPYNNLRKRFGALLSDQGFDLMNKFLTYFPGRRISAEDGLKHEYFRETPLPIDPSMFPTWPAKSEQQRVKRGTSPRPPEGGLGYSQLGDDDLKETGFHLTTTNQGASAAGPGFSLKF
# DDR2, sequence (Q16832 22-855): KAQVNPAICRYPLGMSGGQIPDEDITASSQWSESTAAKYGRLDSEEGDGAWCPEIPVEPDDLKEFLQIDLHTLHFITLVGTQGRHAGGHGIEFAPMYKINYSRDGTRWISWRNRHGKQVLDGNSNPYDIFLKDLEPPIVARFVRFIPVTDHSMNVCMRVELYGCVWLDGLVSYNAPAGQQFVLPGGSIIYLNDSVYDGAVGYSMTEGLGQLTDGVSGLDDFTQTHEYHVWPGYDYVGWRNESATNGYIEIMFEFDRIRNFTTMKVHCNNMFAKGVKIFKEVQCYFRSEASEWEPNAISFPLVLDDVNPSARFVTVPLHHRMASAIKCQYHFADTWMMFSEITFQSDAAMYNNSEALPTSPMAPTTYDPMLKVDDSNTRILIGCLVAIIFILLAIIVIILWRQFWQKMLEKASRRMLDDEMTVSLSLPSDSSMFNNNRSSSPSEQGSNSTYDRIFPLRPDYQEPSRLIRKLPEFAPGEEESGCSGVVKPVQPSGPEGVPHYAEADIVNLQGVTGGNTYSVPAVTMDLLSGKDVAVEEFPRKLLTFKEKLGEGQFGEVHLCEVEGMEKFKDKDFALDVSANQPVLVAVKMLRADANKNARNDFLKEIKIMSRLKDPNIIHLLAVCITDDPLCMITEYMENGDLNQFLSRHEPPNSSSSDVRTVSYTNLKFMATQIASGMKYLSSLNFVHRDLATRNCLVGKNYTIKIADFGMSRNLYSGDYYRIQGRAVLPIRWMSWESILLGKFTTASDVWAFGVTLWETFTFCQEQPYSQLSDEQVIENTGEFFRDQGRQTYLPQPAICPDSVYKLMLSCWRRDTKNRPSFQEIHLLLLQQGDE
# PRKCH, sequence (P24723 whole entry): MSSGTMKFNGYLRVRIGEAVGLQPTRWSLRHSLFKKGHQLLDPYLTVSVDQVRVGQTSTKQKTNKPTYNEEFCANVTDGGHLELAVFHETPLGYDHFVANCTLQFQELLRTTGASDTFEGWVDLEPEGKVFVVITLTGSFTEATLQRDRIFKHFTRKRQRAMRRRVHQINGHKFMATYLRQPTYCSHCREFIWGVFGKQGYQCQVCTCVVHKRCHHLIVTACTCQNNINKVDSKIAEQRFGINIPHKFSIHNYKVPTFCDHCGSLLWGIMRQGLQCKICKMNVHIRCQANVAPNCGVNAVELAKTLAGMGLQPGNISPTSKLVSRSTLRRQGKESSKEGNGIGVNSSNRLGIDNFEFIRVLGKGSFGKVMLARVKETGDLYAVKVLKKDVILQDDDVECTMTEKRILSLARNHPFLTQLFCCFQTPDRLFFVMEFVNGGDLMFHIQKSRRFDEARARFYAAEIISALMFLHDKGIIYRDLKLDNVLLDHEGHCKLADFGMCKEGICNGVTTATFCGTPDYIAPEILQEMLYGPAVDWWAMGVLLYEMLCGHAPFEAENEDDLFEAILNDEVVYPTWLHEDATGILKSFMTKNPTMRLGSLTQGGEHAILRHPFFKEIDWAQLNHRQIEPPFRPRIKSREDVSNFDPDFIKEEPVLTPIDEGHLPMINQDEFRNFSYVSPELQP
# DDR1, sequence (Q08345 19-913): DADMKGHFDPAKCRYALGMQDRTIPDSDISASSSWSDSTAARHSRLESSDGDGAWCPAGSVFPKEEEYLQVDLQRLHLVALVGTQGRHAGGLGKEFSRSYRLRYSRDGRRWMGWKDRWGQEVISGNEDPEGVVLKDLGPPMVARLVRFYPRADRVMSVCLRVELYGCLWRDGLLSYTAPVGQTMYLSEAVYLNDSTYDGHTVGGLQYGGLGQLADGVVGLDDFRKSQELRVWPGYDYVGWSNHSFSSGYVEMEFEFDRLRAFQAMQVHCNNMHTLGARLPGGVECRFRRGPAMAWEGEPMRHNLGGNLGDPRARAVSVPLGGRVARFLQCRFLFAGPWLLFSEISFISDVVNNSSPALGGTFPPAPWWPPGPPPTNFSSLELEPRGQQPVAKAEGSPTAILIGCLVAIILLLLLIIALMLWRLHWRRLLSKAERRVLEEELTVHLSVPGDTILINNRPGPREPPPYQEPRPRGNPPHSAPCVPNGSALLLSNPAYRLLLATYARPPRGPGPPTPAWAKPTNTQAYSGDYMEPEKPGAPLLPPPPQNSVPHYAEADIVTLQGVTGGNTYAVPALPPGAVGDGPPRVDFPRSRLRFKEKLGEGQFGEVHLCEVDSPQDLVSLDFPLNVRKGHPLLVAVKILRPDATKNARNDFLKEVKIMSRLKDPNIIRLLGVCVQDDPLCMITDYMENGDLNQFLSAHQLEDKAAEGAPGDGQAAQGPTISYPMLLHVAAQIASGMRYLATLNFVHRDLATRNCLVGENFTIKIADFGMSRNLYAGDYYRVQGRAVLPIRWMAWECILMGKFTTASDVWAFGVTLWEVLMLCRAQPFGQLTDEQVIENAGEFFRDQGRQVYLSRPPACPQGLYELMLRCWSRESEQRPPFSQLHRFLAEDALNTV
SMILES,remaining binding at 1 µM (AAKI),remaining binding at 1 µM [1],remaining binding at 1 µM (AKT3),remaining binding at 1 µM (AMPK-alpha2),remaining binding at 1 µM (ARK5),remaining binding at 1 µM (ASK1),remaining binding at 1 µM (BRSK1),remaining binding at 1 µM (BRSK2),remaining binding at 1 µM (CDC2L2),remaining binding at 1 µM (DDR1),remaining binding at 1 µM (DDR2),remaining binding at 1 µM (DLK),remaining binding at 1 µM (DMPK),"remaining binding at 1 µM (EGFR(L858R, T790M))",remaining binding at 1 µM (EPHA8),remaining binding at 1 µM (FGFR1),remaining binding at 1 µM (FGFR3),remaining binding at 1 µM (FGFR4),remaining binding at 1 µM (FYN),remaining binding at 1 µM (GRK4),further results
"CCN1CCN(Cc2cc(NC(=O)c3ccc(C)c(-c4ccc5nc(NC(=O)C6CC6)cn5n4)c3)cc(C(F)(F)F)c2)CC1 [Compound I-2, 3-(2-(cyclopropanecarboxamido)imidazo[1,2-b]pyridazin-6-yl)-N-(3-((4-ethylpiperazin-1-yl)methyl)-5-(trifluoromethyl)phenyl)-4-methylbenzamide]",100%,0%,8%,99%,94%,97%,100%,93%,27%,0.05%,0.1%,15%,87%,100%,0%,77%,86%,100%,4.1%,81%,remaining binding at 1 µM (IKK-epsilon): 80%; remaining binding at 1 µM (INSRR): 0.55%; remaining binding at 1 µM [2]: 7.9%; remaining binding at 1 µM (JNK2): 46%; remaining binding at 1 µM (LYN): 0.55%; remaining binding at 1 µM (MST2): 50%; remaining binding at 1 µM (NEK11): 65%; remaining binding at 1 µM (OSR1): 99%; remaining binding at 1 µM (PIK3CA): 78%; remaining binding at 1 µM (PIK3CA(H1047L)): 89%; remaining binding at 1 µM (PIK3CG): 99%; remaining binding at 1 µM (PIP5K2B): 93%; remaining binding at 1 µM (PRKCH): 86%; remaining binding at 1 µM [3]: 100%; remaining binding at 1 µM (SIK2): 100%; remaining binding at 1 µM (SRPK3): 92%; remaining binding at 1 µM (STK39): 74%; remaining binding at 1 µM (TXK): 16%; remaining binding at 1 µM (TYR): 26%
"CCN1CCN(Cc2cc(NC(=O)c3ccc(C)c(-c4ccc5nc(NC(=O)C6CC6)cn5c4)c3)cc(C(F)(F)F)c2)CC1 [Compound I-6, 3-(2-(cyclopropanecarboxamido)imidazo[1,2-a]pyridin-6-yl)-N-(3-((4-ethylpiperazin-1-yl)methyl)-5-(trifluoromethyl)phenyl)-4-methylbenzamide]",89%,0.15%,94%,99%,100%,100%,96%,71%,34%,0.15%,0%,26%,100%,59%,0%,57%,89%,100%,3.7%,98%,remaining binding at 1 µM (IKK-epsilon): 87%; remaining binding at 1 µM (INSRR): 3.8%; remaining binding at 1 µM [2]: 6.5%; remaining binding at 1 µM (JNK2): 27%; remaining binding at 1 µM (LYN): 0.6%; remaining binding at 1 µM (MST2): 97%; remaining binding at 1 µM (NEK11): 89%; remaining binding at 1 µM (OSR1): 100%; remaining binding at 1 µM (PIK3CA): 96%; remaining binding at 1 µM (PIK3CA(H1047L)): 68%; remaining binding at 1 µM (PIK3CG): 92%; remaining binding at 1 µM (PIP5K2B): 86%; remaining binding at 1 µM (PRKCH): 100%; remaining binding at 1 µM [3]: 96%; remaining binding at 1 µM (SIK2): 100%; remaining binding at 1 µM (SRPK3): 83%; remaining binding at 1 µM (STK39): 93%; remaining binding at 1 µM (TXK): 19%; remaining binding at 1 µM (TYR): 47%
